According to patent US20230233541A1, “SUBSTITUTED BENZAMIDES AS MODULATORS OF TREX1” (Constellation Pharmaceuticals, Inc., priority 2020, published 2023):

Experiments:
[1] = target: T1, human TREX2 (residues M44-A279) (Homo sapiens, UniProt Q9BQ50); assay: TREX2 Biochemical Assay (fluorescence assay, degradation of dsDNA substrate); conditions: 2.5 nM TREX2, 60 nM dsDNA substrate, 25 minutes at room temperature; read-out: hTREX2 EC50
T1 construct: human TREX2 (residues M44-A279, expressed in E. coli); His-Tev (His tag with TEV protease site) (N); made in house; host or cells: E. coli
T1 sequence (Q9BQ50 44-279 isoform Q9BQ50-1): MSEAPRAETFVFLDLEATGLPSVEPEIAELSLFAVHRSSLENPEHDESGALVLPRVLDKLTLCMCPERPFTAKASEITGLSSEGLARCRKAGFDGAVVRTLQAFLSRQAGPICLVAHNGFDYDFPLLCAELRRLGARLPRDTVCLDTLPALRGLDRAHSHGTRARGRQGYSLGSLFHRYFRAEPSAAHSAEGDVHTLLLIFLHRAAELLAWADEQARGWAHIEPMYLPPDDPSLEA
Description: Degradation of the dsDNA liberates free fluorophore to produce a fluorescent signal. Specifically, 7.5 μL of N-terminally His-Tev tagged human TREX2 (residues M44-A279, expressed in E. coli and purified in house) in reaction buffer (50 mM Tris (pH 7.4), 150 mM NaCl, 2 mM DTT, 0.1 mg/mL BSA, 0.01% (v/v) Tween-20 and 100 mM MgCl2) was added to a 384-well Black ProxiPlate Plus (Perkin Elmer) which already contained compound (150 nL) at varying concentrations as a 10-point dose-response in DMSO. To this was added 7.5 μL of dsDNA substrate (Strand A: 5′ TEX615/GCT AGG CAG 3′; Strand B: 5′ CTG CCT AGC/IAbRQSp (IDT)) in reaction buffer. Final concentrations were 2.5 nM TREX2, 60 nM dsDNA substrate in reaction buffer with 1.0% DMSO (v/v). After 25 minutes at room temperature, reactions were quenched by the addition of 5 μL of stop buffer (same as reaction buffer plus 200 mM EDTA). Final concentrations in the quenched reaction mixture were […] TREX2, 45 nM DNA and 50 mM EDTA in a volume of 20 μL. After a 5-minute incubation at room temperature, plates were read in a laser sourced Envision (Perkin-Elmer), measuring fluorescence at 615 nm following excitation w/570 nm light. IC50 values were calculated by comparing the measured fluorescence at 615 nm ratio relative to control wells pre-quenched w/stop buffer (100% inhibition) and no inhibitor (0% inhibition) controls as using non-linear least square four parameter fits and either Genedata or GraphPad Prism (GraphPad Software, Inc.).

full length human TREX1 = target: T2, full length human TREX1 (Homo sapiens, UniProt Q9NSU2); assay: TREX1 Biochemical Assay (fluorescence assay, degradation of dsDNA substrate); conditions: 150 pM TREX1, 60 nM dsDNA substrate, 25 minutes at room temperature; read-out: hTREX1 EC50
T2 construct: N-terminally His-Tev tagged full length human TREX1; His-Tev (His tag with TEV protease site) (N); made in house; host or cells: E. coli
T2 sequence (Q9NSU2 1-314): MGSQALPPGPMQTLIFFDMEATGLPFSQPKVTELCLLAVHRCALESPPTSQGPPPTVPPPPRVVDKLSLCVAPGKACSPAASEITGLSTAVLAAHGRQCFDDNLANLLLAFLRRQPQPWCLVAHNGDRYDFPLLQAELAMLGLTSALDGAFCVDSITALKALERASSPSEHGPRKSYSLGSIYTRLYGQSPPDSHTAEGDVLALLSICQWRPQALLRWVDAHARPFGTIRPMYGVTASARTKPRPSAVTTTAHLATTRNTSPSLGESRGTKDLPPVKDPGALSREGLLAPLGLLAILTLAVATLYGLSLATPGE
Description: Degradation of the dsDNA liberates free fluorophore to produce a fluorescent signal. Specifically, 7.5 μL of N-terminally His-Tev tagged full length human TREX1 (expressed in E. coli and purified in house) in reaction buffer (50 mM Tris (pH 7.4), 150 mM NaCl, 2 mM DTT, 0.1 mg/mL BSA, 0.01% (v/v) Tween-20 and 100 mM MgCl2) was added to a 384-well Black ProxiPlate Plus (Perkin Elmer) which already contained compound (150 nL) at varying concentrations as a 10-point dose-response in DMSO. To this was added 7.5 μL of dsDNA substrate (Strand A: 5′ TEX615/GCT AGG CAG 3′; Strand B: 5′ CTG CCT AGC/IAbRQSp (Integrated DNA Technologies)) in reaction buffer. Final concentrations were 150 pM TREX1, 60 nM dsDNA substrate in reaction buffer with 1.0% DMSO (v/v). After 25 minutes at room temperature, reactions were quenched by the addition of 5 μL of stop buffer (same as reaction buffer plus 200 mM EDTA). Final concentrations in the quenched reaction were 112.5 pM TREX1, 45 nM DNA and 50 mM EDTA in a volume of 20 μL. After a 5-minute incubation at room temperature, plates were read in a laser sourced Envision (Perkin-Elmer), measuring fluorescence at 615 nm following excitation w/570 nm light. IC50 values were calculated by comparing the measured fluorescence at 615 nm ratio relative to control wells pre-quenched w/stop buffer (100% inhibition) and no inhibitor (0% inhibition) controls as using non-linear least square four parameter fits and either Genedata or GraphPad Prism (GraphPad Software, Inc.).

Compound	EC50 [1] [µM]	EC50 (full length human TREX1) [µM]
O=C(c1ccc(CO)cc1)N(Cc1cccnc1)Cc1ccc(Cl)cc1Cl [Compound 83]	> 100	> 10
O=C(c1ccc(CO)cc1F)N(Cc1cccnc1)Cc1ccc(Cl)cc1Cl [Compound 84]	> 100	> 10
CC(C)c1ccc(C(=O)N(Cc2cccnc2)Cc2ccc(Cl)cc2Cl)cc1 [Compound 85]	> 100	> 10
O=C(C1CCC(O)CC1)N(Cc1cccnc1)Cc1ccc(Cl)cc1Cl (stereo not drawn) [Compound 86]	> 100	> 10
COc1cc(Br)cc(C(=O)N(Cc2cccnc2)Cc2ccc(Cl)cc2Cl)c1 [Compound 87]	> 100	> 10
CCC(=O)N(Cc1cccnc1)Cc1ccc(Cl)cc1Cl [Compound 88]	> 100	> 10
O=C(C1CCOCC1)N(Cc1cccnc1)Cc1ccc(Cl)cc1Cl [Compound 89]	> 100	> 10
CC(C)Oc1ccc(C(=O)N(Cc2cccnc2)Cc2ccc(Cl)cc2Cl)cc1 [Compound 90]	> 100	> 10
O=C(CN1CCCC1)N(Cc1cccnc1)Cc1ccc(Cl)cc1Cl [Compound 91]	> 100	> 10
COCC(=O)N(Cc1cccnc1)Cc1ccc(Cl)cc1Cl [Compound 92]	> 100	> 10
O=C(CCCCc1ccccc1)N(Cc1cccnc1)Cc1ccc(Cl)cc1Cl [Compound 93]	> 100	> 10
O=C(Cc1ccccc1)N(Cc1cccnc1)Cc1ccc(Cl)cc1Cl [Compound 94]	> 100	> 10
O=C(c1cccc(F)c1)N(Cc1ccccn1)Cc1ccc(Cl)cc1Cl [Compound 95]	> 100	> 10
O=C(c1cccc(F)c1)N(Cc1ccccc1)Cc1ccc(Cl)cc1Cl [Compound 96]	> 100	> 10
O=C(c1cccc(F)c1)N(Cc1ccncc1)Cc1ccc(Cl)cc1Cl [Compound 97]	> 100	> 10
O=C(c1ccc(F)cc1)N(Cc1cccnc1)Cc1ccc(Cl)cc1Cl [Compound 98]	> 100	> 10
O=C(c1ccc(F)cn1)N(Cc1cccnc1)Cc1ccc(Cl)cc1Cl [Compound 99]	> 100	> 10
O=C(c1cncnc1)N(Cc1cccnc1)Cc1ccc(Cl)cc1Cl [Compound 100]	> 100	> 10
O=C(c1ccc(F)c(F)c1)N(Cc1cccnc1)Cc1ccc(Cl)cc1Cl [Compound 101]	> 100	1 to 10
O=C(c1ncccn1)N(Cc1cccnc1)Cc1ccc(Cl)cc1Cl [Compound 102]	> 100	> 10
N#Cc1ccc(C(=O)N(Cc2cccnc2)Cc2ccc(Cl)cc2Cl)cc1 [Compound 103]	> 100	> 10
Cc1ncc(C(=O)N(Cc2cccnc2)Cc2ccc(Cl)cc2Cl)cn1 [Compound 104]	> 100	> 10
O=C(c1cccc(F)c1)N(Cc1ccc(C(F)(F)F)nc1)Cc1ccc(Cl)cc1Cl [Compound 105]	> 100	> 10
O=C(c1cccc(F)c1)N(Cc1cncnc1)Cc1ccc(Cl)cc1Cl [Compound 106]	> 100	1 to 10

Compound	EC50 [1] [µM]	EC50 (full length human TREX1) [µM]
O=C(c1cccc(F)c1)N(Cc1cccnn1)Cc1ccc(Cl)cc1Cl [Compound 107]	> 100	> 10
Cc1ncc(CN(Cc2ccc(Cl)cc2Cl)C(=O)c2cccc(F)c2)cn1 [Compound 108]	> 100	> 10
O=C(c1cccc(F)c1)N(Cc1cnc2ccccc2c1)Cc1ccc(Cl)cc1Cl [Compound 109]	> 100	> 10
Cc1ccc(CN(Cc2ccc(Cl)cc2Cl)C(=O)c2cccc(F)c2)cn1 [Compound 110]	> 100	> 10
O=C(c1cccc(F)c1)N(Cc1cnccn1)Cc1ccc(Cl)cc1Cl [Compound 111]	> 100	1 to 10
Cn1cc(CN(Cc2ccc(Cl)cc2Cl)C(=O)c2cccc(F)c2)cn1 [Compound 112]	> 100	> 10
O=C(c1cocn1)N(Cc1cccnc1)Cc1ccc(Cl)cc1Cl [Compound 113]	> 100	> 10
O=C(c1cnon1)N(Cc1cccnc1)Cc1ccc(Cl)cc1Cl [Compound 114]	> 100	> 10
Cc1noc(C)c1C(=O)N(Cc1cccnc1)Cc1ccc(Cl)cc1Cl [Compound 115]	> 100	> 10
Cc1nonc1C(=O)N(Cc1cccnc1)Cc1ccc(Cl)cc1Cl [Compound 116]	> 100	> 10
O=C(c1cnco1)N(Cc1cccnc1)Cc1ccc(Cl)cc1Cl [Compound 117]	> 100	> 10
O=C(c1ccon1)N(Cc1cccnc1)Cc1ccc(Cl)cc1Cl [Compound 118]	> 100	> 10
O=C(c1cc(F)c(F)c(F)c1)N(Cc1cccnc1)Cc1ccc(Cl)cc1Cl [Compound 119]	10 to 100	0.1 to 1
O=C(c1cc(F)c(F)cc1F)N(Cc1cccnc1)Cc1ccc(Cl)cc1Cl [Compound 120]	> 100	> 10
O=C(c1cc(F)cc(F)c1)N(Cc1cccnc1)Cc1ccc(Cl)cc1Cl [Compound 121]	10 to 100	0.1 to 1
O=C(c1cc(F)ccc1F)N(Cc1cccnc1)Cc1ccc(Cl)cc1Cl [Compound 122]	> 100	> 10
O=C(c1ccc(F)c(F)c1F)N(Cc1cccnc1)Cc1ccc(Cl)cc1Cl [Compound 123]	> 100	1 to 10
O=C(c1cccc(F)c1F)N(Cc1cccnc1)Cc1ccc(Cl)cc1Cl [Compound 124]	> 100	1 to 10
COc1ccccc1CN(Cc1cccnc1)C(=O)c1cccc(F)c1 [Compound 125]	> 100	> 10
Cn1ncc2cc(CN(Cc3cccnc3)C(=O)c3cccc(F)c3)ccc21 [Compound 126]	> 100	> 10
COc1cccc(CN(Cc2cccnc2)C(=O)c2cccc(F)c2)c1Cl [Compound 127]	> 100	1 to 10
Cn1ncc2ccc(CN(Cc3cccnc3)C(=O)c3cccc(F)c3)cc21 [Compound 128]	> 100	1 to 10
O=C(c1cccc(F)c1)N(Cc1cccnc1)Cc1ccccc1F [Compound 129]	> 100	> 10
O=C(c1cccc(F)c1)N(Cc1cccnc1)Cc1c(F)cccc1Cl [Compound 130]	10 to 100	1 to 10
